The supplement of paper PMC11061612

Key:
[1] = test system: COLO-792 (Melanoma); assay: Bliss excess, mean over the matrix (fraction); higher = more synergy
In short: (§1)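 Cell lines in DMEM/F12 or RPMI with 10% FBS were plated in 1536-well plates, held 24 hours at 37°C, 5% CO2, then given two-drug dose matrices for 72 hours (DMSO typically 0.2%). Viability was read by CellTiter-Glo 2.0 luminescence and scaled as inhibition from 0 (vehicle wells) to 1 (blank wells). Combination Emax is the second-highest inhibition in the matrix; Bliss excess is observed combination effect minus expected EA + EB − EA·EB, EA and EB being single-agent effects.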

[2] = test system: DMS-53 (Small Cell Lung Carcinoma); assay: as above
In short: as §1

[3] = test system: EPLC-272H (Other Solid Carcinomas); assay: as above
In short: as §1

[4] = test system: RH-41 (Rhabdomyosarcoma); assay: as above
In short: as §1

[5] = test system: 5637 (Bladder Carcinoma); assay: as above
In short: as §1

[6] = test system: ESO26 (Esophageal Adenocarcinoma); assay: as above
In short: as §1

[7] = test system: KYSE-140 (Esophageal Squamous Cell Carcinoma); assay: as above
In short: as §1

[8] = test system: JVM-2 (B-Cell Non-Hodgkin's Lymphoma); assay: as above
In short: as §1

[9] = test system: KP-N-YN (Neuroblastoma); assay: as above
In short: as §1

[10] = test system: CESS (Acute Myeloid Leukemia); assay: as above
In short: as §1

[11] = test system: HT55 (Colorectal Carcinoma); assay: as above
In short: as §1

[12] = test system: NB13 (Neuroblastoma); assay: as above
In short: as §1

[13] = test system: HCC1428 (Breast Carcinoma); assay: as above
In short: as §1

[14] = test system: DU-4475 (Breast Carcinoma); assay: as above
In short: as §1

[15] = test system: A101D (Melanoma); assay: as above
In short: as §1

[16] = test system: GCT (Other Solid Carcinomas); assay: as above
In short: as §1

[17] = test system: huH-1 (Hepatocellular Carcinoma); assay: as above
In short: as §1

[18] = test system: GA-10 (Burkitt's Lymphoma); assay: as above
In short: as §1

[19] = test system: G-402 (Other Solid Carcinomas); assay: as above
In short: as §1

[20] = test system: A253 (Head and Neck Carcinoma); assay: combination Emax (second highest fraction inhibited in the dose matrix, 72 h); higher = more inhibition; extreme values may be limits of the assay
In short: as §1
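Wherever Bliss excess, mean over the matrix is given: after 72 h of two-drug dosing.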

COc1cc2ncnc(Nc3ccc(F)c(Cl)c3)c2cc1OCCCN1CCOCC1 [Gefitinib] + CC(C)n1c(=O)n(C)c2cnc3cc(F)c(-c4ccc(OCCCN5CCCCC5)nc4)cc3c21 [AZD1390] (first compound max 10 µM, 7x7, partner max 0.3 µM)
Bliss excess [1]: -0.0612
Bliss excess [2]: -0.0243
Bliss excess [3]: -0.0207
Bliss excess [4]: -0.0378
Bliss excess [5]: -0.0467
Bliss excess [6]: -0.0832
Bliss excess [7]: -0.0919
Bliss excess [8]: -0.0645
Bliss excess [9]: -0.045
Bliss excess [10]: -0.0386
Bliss excess [11]: -0.0393
Bliss excess [12]: -0.0433
Bliss excess [13]: -0.0393
Bliss excess [14]: -0.0427
Bliss excess [15]: -0.083
Bliss excess [16]: -0.065
Bliss excess [17]: -0.0593
Bliss excess [18]: -0.032
Bliss excess [19]: -0.0659
combination Emax [20]: 0.196

Cc1cc2ncnn2cc1Nc1ncc2c(n1)n(C1CCOCC1)c(=O)n2C [AZD7648] + C[C@@H]1COCCN1C2=NC(=NC(=C2)C3(CC3)[S@](=N)(=O)C)C4=C5C=CNC5=NC=C4 [AZD6738] (first compound max 10 µM, 7x7, partner max 10 µM)
Bliss excess [1]: 0.0187
Bliss excess [2]: 0.0179
Bliss excess [3]: -0.0093
Bliss excess [4]: 0.0098
Bliss excess [5]: -0.0289
Bliss excess [6]: -0.0389
Bliss excess [7]: -0.0248
Bliss excess [8]: -0.0555
Bliss excess [9]: -0.0083
Bliss excess [10]: 0.0058
Bliss excess [11]: 0.0268
Bliss excess [12]: -0.0124
Bliss excess [13]: -0.0086
Bliss excess [14]: 0.0019
Bliss excess [15]: -0.0272
Bliss excess [16]: 0.0097
Bliss excess [17]: 0.02
Bliss excess [18]: 0.0131
Bliss excess [19]: 0.0185
combination Emax [20]: 0.77

CN(CCO)CC[C@H](CSc1ccccc1)Nc1ccc(S(=O)(=O)NC(=O)c2ccc(N3CCC([C@@H](O)c4ccccc4-c4ccc(Cl)cc4)CC3)cc2)cc1S(=O)(=O)C(F)(F)F [AZD4320] + C1CN(CCC1(C(=O)N[C@@H](CCO)C2=CC=C(C=C2)Cl)N)C3=NC=NC4=C3C=CN4 [Capivasertib] (first compound max 1 µM, 7x7, partner max 3 µM)
Bliss excess [1]: 0.0021
Bliss excess [2]: -0.0195
Bliss excess [3]: -0.0089
Bliss excess [4]: -0.0159
Bliss excess [5]: -0.0471
Bliss excess [6]: -0.0271
Bliss excess [7]: -0.0432
Bliss excess [8]: -0.0068
Bliss excess [9]: -0.0237
Bliss excess [10]: 0.0517
Bliss excess [11]: -0.0469
Bliss excess [12]: 0.0174
Bliss excess [13]: -0.0092
Bliss excess [14]: 0.069
Bliss excess [15]: -0.0695
Bliss excess [16]: -0.021
Bliss excess [17]: -0.0215
Bliss excess [18]: -0.0283
Bliss excess [19]: -0.0262
combination Emax [20]: 0.499

COc1cc2c(cc1OCCCCCOc1cc3c(cc1OC)C(=O)N1C=C(C)C[C@H]1C=N3)N=C[C@@H]1CC(C)=CN1C2=O [SG3199] + O=C(c1cc(Cc2n[nH]c(=O)c3ccccc23)ccc1F)N1CCN(C(=O)C2CC2)CC1 [Olaparib] (first compound max 0.001 µM, 7x7, partner max 10 µM)
Bliss excess [1]: -0.0373
Bliss excess [2]: -0.0259
Bliss excess [3]: -0.0023
Bliss excess [4]: 0.0396
Bliss excess [5]: -0.0278
Bliss excess [6]: 0.0119
Bliss excess [7]: -0.0186
Bliss excess [8]: -0.0219
Bliss excess [9]: -0.0387
Bliss excess [10]: -0.0156
Bliss excess [11]: -0.0358
Bliss excess [12]: -0.0143
Bliss excess [13]: -0.0676
Bliss excess [14]: 0.0741
Bliss excess [15]: -0.0365
Bliss excess [16]: -0.0325
Bliss excess [17]: -0.0278
Bliss excess [18]: -0.0335
Bliss excess [19]: -0.0289
combination Emax [20]: 0.0649

Cc1nc(Nc2ncc(C(=O)Nc3c(C)cccc3Cl)s2)cc(N2CCN(CCO)CC2)n1 [Dasatinib] + CC(=O)Nc1cccc(-n2c(=O)n(C3CC3)c(=O)c3c(Nc4ccc(I)cc4F)n(C)c(=O)c(C)c32)c1 [Trametinib] (first compound max 2 µM, 7x7, partner max 1 µM)
Bliss excess [1]: -0.0726
Bliss excess [2]: -0.0423
Bliss excess [3]: -0.0746
Bliss excess [4]: -0.0946
Bliss excess [5]: 0.0923
Bliss excess [6]: -0.0892
Bliss excess [7]: -0.132
Bliss excess [8]: -0.0158
Bliss excess [9]: -0.0983
Bliss excess [10]: -0.0622
Bliss excess [11]: -0.032
Bliss excess [12]: -0.0347
Bliss excess [13]: -0.0334
Bliss excess [14]: 0.011
Bliss excess [15]: 0.0947
Bliss excess [16]: -0.119
Bliss excess [17]: -0.0076
Bliss excess [18]: 0.0228
Bliss excess [19]: -0.0618
combination Emax [20]: 0.414

Cc1cc2ncnn2cc1Nc1ncc2c(n1)n(C1CCOCC1)c(=O)n2C [AZD7648] + C=CCn1c(=O)c2cnc(Nc3ccc(N4CCN(C)CC4)cc3)nc2n1-c1cccc(C(C)(C)O)n1 [AZD1775] (first compound max 10 µM, partner max 1 µM)
Bliss excess [1]: 0.0087
Bliss excess [2]: 0.0149
Bliss excess [3]: 0.0042
Bliss excess [4]: 0.0157
Bliss excess [5]: 0.0026
Bliss excess [6]: -0.0641
Bliss excess [7]: 0.0004
Bliss excess [8]: -0.0458
Bliss excess [9]: -0.0428
Bliss excess [10]: 0.028
Bliss excess [11]: -0.0027
Bliss excess [12]: -0.0531
Bliss excess [13]: 0.0179
Bliss excess [14]: -0.051
Bliss excess [15]: 0.0275
Bliss excess [16]: -0.0309
Bliss excess [17]: 0.0313
Bliss excess [18]: 0.037
Bliss excess [19]: 0.0111
combination Emax [20]: 0.415

CN(CCO)CC[C@H](CSc1ccccc1)Nc1ccc(S(=O)(=O)NC(=O)c2ccc(N3CCC([C@@H](O)c4ccccc4-c4ccc(Cl)cc4)CC3)cc2)cc1S(=O)(=O)C(F)(F)F [AZD4320] + Cn1cnc2c(F)c(Nc3ccc(Br)cc3Cl)c(C(=O)NOCCO)cc21 [Selumetinib] (first compound max 1 µM, 7x7, partner max 3 µM)
Bliss excess [1]: 0.0279
Bliss excess [2]: 0.0964
Bliss excess [3]: 0.0108
Bliss excess [4]: 0.0087
Bliss excess [5]: -0.0332
Bliss excess [6]: 0.0111
Bliss excess [7]: 0.0178
Bliss excess [8]: 0.025
Bliss excess [9]: 0.0076
Bliss excess [10]: -0.0701
Bliss excess [11]: 0.0074
Bliss excess [12]: 0.0039
Bliss excess [13]: 0.0011
Bliss excess [14]: 0.0444
Bliss excess [15]: -0.0099
Bliss excess [16]: 0.0789
Bliss excess [17]: -0.0106
Bliss excess [18]: -0.0143
Bliss excess [19]: 0.0153
combination Emax [20]: 0.523

CN(CCO)CC[C@H](CSc1ccccc1)Nc1ccc(S(=O)(=O)NC(=O)c2ccc(N3CCC([C@@H](O)c4ccccc4-c4ccc(Cl)cc4)CC3)cc2)cc1S(=O)(=O)C(F)(F)F [AZD4320] + CCN(CCO)CCCOc1ccc2c(Nc3cc(CC(=O)Nc4cccc(F)c4)[nH]n3)ncnc2c1 [AZD2811] (first compound max 1 µM, 7x7, partner max 1 µM)
Bliss excess [1]: 0.0627
Bliss excess [2]: -0.0067
Bliss excess [3]: 0.0873
Bliss excess [4]: 0.0867
Bliss excess [5]: -0.0117
Bliss excess [6]: -0.0266
Bliss excess [7]: 0.0082
Bliss excess [8]: 0.0677
Bliss excess [9]: 0.0516
Bliss excess [10]: 0.164
Bliss excess [11]: -0.0005
Bliss excess [12]: 0.0975
Bliss excess [13]: 0.16
Bliss excess [14]: 0.0738
Bliss excess [15]: 0.0418
Bliss excess [16]: -0.0089
Bliss excess [17]: 0.0161
Bliss excess [18]: -0.0203
Bliss excess [19]: 0.0415
combination Emax [20]: 0.467

CN(CCO)CC[C@H](CSc1ccccc1)Nc1ccc(S(=O)(=O)NC(=O)c2ccc(N3CCC([C@@H](O)c4ccccc4-c4ccc(Cl)cc4)CC3)cc2)cc1S(=O)(=O)C(F)(F)F [AZD4320] + C[C@@H]1COCCN1C2=NC(=NC(=C2)C3(CC3)[S@](=N)(=O)C)C4=C5C=CNC5=NC=C4 [AZD6738] (first compound max 1 µM, 7x7, partner max 10 µM)
Bliss excess [1]: -0.105
Bliss excess [2]: 0.0446
Bliss excess [3]: -0.0244
Bliss excess [4]: -0.0086
Bliss excess [5]: -0.05
Bliss excess [6]: -0.0439
Bliss excess [7]: -0.0299
Bliss excess [8]: 0.0102
Bliss excess [9]: -0.019
Bliss excess [10]: 0.02
Bliss excess [11]: 0.0093
Bliss excess [12]: -0.0167
Bliss excess [13]: 0.0184
Bliss excess [14]: 0.0521
Bliss excess [15]: 0.046
Bliss excess [16]: -0.0313
Bliss excess [17]: 0.0215
Bliss excess [18]: -0.0075
Bliss excess [19]: -0.0805
combination Emax [20]: 0.892

CN(CCO)CC[C@H](CSc1ccccc1)Nc1ccc(S(=O)(=O)NC(=O)c2ccc(N3CCC([C@@H](O)c4ccccc4-c4ccc(Cl)cc4)CC3)cc2)cc1S(=O)(=O)C(F)(F)F [AZD4320] + C=CCn1c(=O)c2cnc(Nc3ccc(N4CCN(C)CC4)cc3)nc2n1-c1cccc(C(C)(C)O)n1 [AZD1775] (first compound max 1 µM, partner max 1 µM)
Bliss excess [1]: 0.0939
Bliss excess [2]: 0.0817
Bliss excess [3]: -0.0069
Bliss excess [4]: 0.0873
Bliss excess [5]: 0.0437
Bliss excess [6]: -0.0318
Bliss excess [7]: -0.0161
Bliss excess [8]: 0.0965
Bliss excess [9]: 0.0631
Bliss excess [10]: 0.0873
Bliss excess [11]: 0.0167
Bliss excess [12]: 0.0475
Bliss excess [13]: 0.0369
Bliss excess [14]: 0.0013
Bliss excess [15]: 0.14
Bliss excess [16]: -0.0363
Bliss excess [17]: 0.01
Bliss excess [18]: -0.0167
Bliss excess [19]: -0.0345
combination Emax [20]: 0.531
